In patent US20120208776A1 (priority 2002, published 2012):
≈ marks a conversion by molar mass, not a printed value. Where “and” joins values, the source holds several entries; their conditions need not be identical. Equal entries are not always repeated. Where two headings read alike, the source gives them in different places. Marks after values point to notes of the source that are not given here.

Assays:
[1] = test system: HepG2 p53 positive human liver cancer cells; test: MTT proliferation assay; assay type: cell-based
[2] = test system: MCF7 cells; test: Western-blot analysis; assay type: cell-based, human
Protocol: Cells were treated for increasing times with approximately the IC50 concentration, or twice the IC50 concentration, of actein. The cells were harvested, washed with PBS, and sonicated in extraction buffer according to the procedure of Han et al. (Han et al., Stable overexpression of cyclin D1 in a human mammary epithelial cell line prolongs the S-phase, and inhibits growth. Oncogene, 10:953-61, 1995). The lysates were subjected to electrophoresis on a 10% or 12.5% SDS-polyacrylamide gel, and then transferred to a polyvinylidene difluoride (PVDF) membrane. The membrane was blocked with milk protein, and incubated with a solution containing the primary antibody against the following: cyclin D1 (Upstate Biotechnology, Lake Placid, N.Y.), p21^cip1 (Oncogene Research Products, Darmstadt, Germany), ppRb (ser 780, Medical and Biological Laboratories, Nagoya, Japan), cdk4 (Upstate Biotechnology, Lake Placid, N.Y.), EGFR (clone-74, Transduction Laboratories, Lexington, Ky.), p-EGFR (phospho (Y1173)-EGFR) (Cell Signaling, Beverly, Mass.), actin (Sigma, St. Louis, Mo.), Her-2/neu (Cell Signaling, Beverly, Mass.), or phospho-(Y1248)-Her-2/neu (Cell Signaling, Beverly, Mass.)), IκB (Sant Cruz Biotechnolgy, Santa Cruz, Calif.), IκκB (Sigma, St. Louis, Mo.) and PPARγ (Santa Cruz biotechnology, Santa Cruz, Calif.) (Masuda et al., Epigallocatechin-3-gallate inhibits activation of HER-2/neu and downstream signaling pathways in human head and neck and breast carcinoma cells. Clin. Cancer Res., 9: 3486-91, 2003). The membrane was washed, and incubated with horseradish peroxidase conjugated secondary antibody.
Protein bands were visualized with the ECL-enhanced chemiluminescence system, according to the manufacturer's directions (Amersham Pharmacia Biotech) (Sgambato et al., Overexpression of p27 (Kip1) inhibits the growth of both normal and transformed human mammary epithelial cells. Cancer Research, 58:3448-54, 1998). The staining intensities of the visualized blots were quantified using NIH image software. For each protein, the relative band intensities were determined by comparing treated samples with untreated controls. These values were then normalized, using β-actin as an internal control.

[3] = test system: rat liver gene expression
[4] = test system: cyclin D1 and p21 mRNA in MDA-MB-453 cells; test: RT-PCR of mRNA; assay type: cell-based, human
Protocol: (§1) MDA-MB-453 cells were treated with DMSO or actein for 3, 10, or 24 h. RNA was isolated and analyzed by RT-PCR, using primers for cyclin D1 and actin (control). The staining intensities of the visualized blots were quantified using NIH image software. The relative band intensities were determined by comparing treated samples with untreated controls. These values were then normalized (fold), using actin as an internal control.
as §1, with “using β-actin” for “using actin”

[5] = test system: MCF10F normal mammary epithelial cells; test: Cell proliferation, cell count (Coulter Counter); assay type: cell-based, human; settings: 96 h
[6] = test system: MDA-MB-453 cells; assay type: cell-based, human
Protocol: RNA was isolated as previously described. […] Total RNA (8 μg) was reverse transcribed with T7-(dT)24 primer and Super Script III reverse transcriptase (Invitrogen). After purification, cDNA was in vitro transcribed into biotin labeled antisense cRNA with the BioArray high yield RNA transcript labeling kit (Enzo Life Sciences; Farmingdale, N.Y.), according to a modified Affymetrix protocol. cRNA (15 μg) was fragmented into the final probe and hybridized to human U133A 2.0 gene chips (Affymetrix, Inc.; Santa Clara, Calif.), comprised of more than 22,000 probe sets. The Institute for Cancer Genetics Core Facility at the Columbia Genome Center performed the hybridization.
Two or three replicates of each microarray were performed to determine intrasample variation. To bolster the robustness of the analysis, the effects of 4 doses for 2 time periods were examined.
All analyses were performed using the AffyLimmaGUI package in the open-source Bioconductor suite, as previously described. […] Variability is reported in terms of a p-value representing the probability that differences between treated and untreated could occur by chance. The p-value takes into account both the variability within groups (in this case the groups are treated and control) and the variability between groups.

[7] = rat liver, actein 35.7 mg/kg, 6 hours, vs control
[8] = rat liver, actein 35.7 mg/kg, 24 hours, vs control

For `CC(=O)O[C@@H]1C[C@@]23C[C@@]24CC[C@H](O[C@@H]2OC[C@@H](O)[C@H](O)[C@H]2O)C(C)(C)[C@@H]4CC[C@H]3[C@]2(C)C[C@@H]3O[C@]4(C[C@@H](C)[C@@H]3[C@@]12C)O[C@H](O)[C@@]1(C)O[C@@H]41` [actein], the IC50 [1] was 27 µg/mL and 40 µM, the “cellular level of cyclin D1” value ([2]; 40 μg/ml, 24 h) was “almost a complete loss” and the “level of EGFR” value ([2]; 20 or 40 μg/ml) was “not significantly affected”. For the same compound, the “p21cip1 band intensity relative to β-actin” value ([2]; 3 h, 20 μg/ml) was 1.47 fold, the “ppRb band intensity relative to β-actin” value ([2]; 3 h, 20 μg/ml) was 1.51 fold and the “p21cip1 band intensity relative to β-actin” value ([2]; 3 h, 40 μg/ml) was 1.17 fold and 1 fold. The “ppRb band intensity relative to β-actin” value ([2]; 3 h, 40 μg/ml) was 1.59 fold, the “p21cip1 band intensity relative to β-actin” value ([2]; 10 h, 20 μg/ml) was 1.75 fold and the “ppRb band intensity relative to β-actin” value ([2]; 10 h, 20 μg/ml) was 0.61 fold. The “p21cip1 band intensity relative to β-actin” value ([2]; 10 h, 40 μg/ml) was 1.37 fold, the “ppRb band intensity relative to β-actin” value ([2]; 10 h, 40 μg/ml) was 0.64 fold and the “p21cip1 band intensity relative to β-actin” value ([2]; 24 h, 20 μg/ml) was 0.94 fold. The “ppRb band intensity relative to β-actin” value ([2]; 24 h, 20 μg/ml) was 0.80 fold and 0.8 fold, the “p21cip1 band intensity relative to β-actin” value ([2]; 24 h, 40 μg/ml) was 0.78 fold and the “ppRb band intensity relative to β-actin” value ([2]; 24 h, 40 μg/ml) was 0.43 fold. For the same compound, the “ATP synthase expression, fold-change (log)” value ([3]; actein 35.7 mg/kg, 6 hours) was −0.05, the “number of genes with significant change (p<0.05) in transcription level” value ([3]; actein 35.7 mg/kg, 6 hours) was 297 and the “erythropoietin expression, fold-change (log)” value ([3]; actein 35.7 mg/kg, 6 hours, rat liver) was −0.22. The “C4BP expression, fold-change (log)” value ([3]; actein 35.7 mg/kg, 24 hours) was 0.17, the “CXCL1 expression, fold-change (log)” value ([3]; actein 35.7 mg/kg, 24 hours) was 0.44 and the “FDPS expression, fold-change (log)” value ([3]; actein 35.7 mg/kg, 24 hours) was 0.34. For the same compound, the “HMGCS expression, fold-change (log)” value ([3]; actein 35.7 mg/kg, 24 hours) was 0.36, the “IPP expression, fold-change (log)” value ([3]; actein 35.7 mg/kg, 24 hours) was 0.80 and the “S100A9 expression, fold-change (log)” value ([3]; actein 35.7 mg/kg, 24 hours) was 0.79. For the same compound, the “SCD1 expression, fold-change (log)” value ([3]; actein 35.7 mg/kg, 24 hours) was −1.28, the “number of genes with significant change (p<0.05) in transcription level” value ([3]; actein 35.7 mg/kg, 24 hours) was 1335 and the “PPS, Hepatic inflammatory infiltrate, centrilobular signature” value ([3]; female, Sprague-Dawley, rat, in vivo, 6 h) was 0.58. For the same compound, the “PPS, Hepatic inflammatory infiltrate, early gene expression signature” value ([3]; female, Sprague-Dawley, rat, in vivo, 24 h) was 0.56, the “Fold-change (log) ATP5I (1387019_at)” value [3, 7] was −0.05* and the “Fold-change (log) EPO (1387308_at)” value [3, 7] was −0.22^†. The “Fold-change (log) ACOX1 (1367680_at)” value [3, 8] was −0.17*, the “Fold-change (log) C4BP, Complement component 4 binding protein, alpha (1369764_at)” value [3, 8] was 0.09* and the “Fold-change (log) C4BP, Complement component 4 binding protein, beta (1368695_at)” value [3, 8] was 0.17*. For the same compound, the “Fold-change (log) C5 (1383425_at)” value [3, 8] was 0.18*, the “Fold-change (log) CD44 (1387952_a_at)” value [3, 8] was 0.08* and the “Fold-change (log) CXCL1 (1387316_at)” value [3, 8] was 0.44*. The “Fold-change (log) FDPS (1367667_at)” value [3, 8] was 0.34*, the “Fold-change (log) HMGCS1 (1367932_at)” value [3, 8] was 0.36^† and the “Fold-change (log) IPP (1388872_at)” value [3, 8] was 0.80*. For the same compound, the “Fold-change (log) MG3PDH (1387670_at)” value [3, 8] was −0.38*, the “Fold-change (log) S100A9 (1387125_at)” value [3, 8] was 0.79* and the “Fold-change (log) SAP (1367804_at)” value [3, 8] was −0.04*. For the same compound, the “Fold-change (log) SCD1 (1370355_at)” value [3, 8] was −1.28*, the “cyclin D1 mRNA (RT-PCR)” value ([4]; 3 h, 20 μg/ml) was 0.88 fold and the “cyclin D1 mRNA (RT-PCR)” value ([4]; 3 h, 40 μg/ml) was 1 fold. For the same compound, the “cyclin D1 mRNA (RT-PCR)” value ([4]; 10 h, 20 μg/ml) was 1.18 fold, the “cyclin D1 mRNA (RT-PCR)” value ([4]; 10 h, 40 μg/ml) was 1.02 fold and the “cyclin D1 mRNA (RT-PCR)” value ([4]; 24 h, 20 μg/ml) was 0.98 fold. The “cyclin D1 mRNA (RT-PCR)” value ([4]; 24 h, 40 μg/ml) was 0.56 fold, the IC50 ([5]; Homo sapiens, MCF-10F, MCF10F cells) was 42 µg/mL (≈ 62.1 µM) and the cells alive ([5]; MCF10F, 20 μg/ml) was 63.8%±1.4.

For `C[C@H]1O[C@@H](O[C@H]2[C@@H](O)C[C@H](O[C@H]3[C@@H](O)C[C@H](O[C@H]4CC[C@@]5(C)[C@H](CC[C@@H]6[C@@H]5CC[C@]5(C)[C@@H](C7=CC(=O)OC7)CC[C@]65O)C4)O[C@@H]3C)O[C@@H]2C)C[C@H](O)[C@@H]1O` [digitoxin], the “number of genes with significantly altered expression” value ([6]; digitoxin 20 ng/ml, 24 hours) was 22, the “number of genes altered” value ([6]; digitoxin 0.1 μg/mL, 6 hours) was 2 and the “number of genes altered” value ([6]; digitoxin 0.1 μg/mL, 24 hours) was 8. The “number of genes altered” value ([6]; digitoxin 0.2 μg/mL, 6 hours) was 6, the “number of genes altered” value ([6]; digitoxin 0.2 μg/mL, 24 hours) was 88 and the “number of genes altered” value ([6]; digitoxin 1 μg/mL, 6 hours) was 87. For the same compound, the “number of genes altered” value ([6]; digitoxin 1 μg/mL, 24 hours) was 1491.
